Experimental data taken from patent publication EP2926811A1, “ARTEMETHER-CONTAINING PHARMACEUTICAL COMPOSITION, PREPARATION, AND USE THEREOF” (Kunming Pharmaceutical Corp., priority 2012, dated 2014).
Read-outs that look alike come from different tables or passages of the source.

How the values were obtained:
Format in all cases: cell-based
K562 cells = assay: modified MTT method, proliferation of K562 cells; details: Homo sapiens, read-out: IC50 on the growth of K562 cells
Description: (§1) Five test concentrations 2, 10, 50, 250 and 500 µM were set for each of five derivatives of artemisinin, artemether drug substance, artemisinin, dihydroartemisinin, artesunate were dissolved with dimethyl sulfoxide (DMSO), while the lyophilized powder of artemether was dissolved with normal saline (N.S.), followed by addition of a certain amount of RPMI 1640 complete culture solution to formulate a high-concentration solution, and each of the low-concentration solutions was formulated by proportionate dilution from the high-concentration solution.
(§2) The concentrations of DMSO contained in the solutions at the two relatively high concentrations 500 and 250 µM for the artemether drug substance, artemisinin, dihydroartemisinin, artesunate, used as solvent controls, were formulated with […] culture solution, at which time the test concentrations of DMSO were 1% and 0.5%. The concentrations of the excipients contained in the solutions at the two relatively high concentrations 500 and 250 µM for the preparation of lyophilized powder of artemether were used as solvent controls.
(§3) The positive control was an anti-cancer drug adriamycin (ADM), which was set at three test concentrations (final concentrations) of 0.1, 1 and 10 µg/ml. To ADM stock solution (1 mg/ml) a certain amount of PRMI 1640 complete culture solution was added, to formulate a high-concentration solution, and each of the low-concentration solutions were formulated by proportionate dilutions from the high-concentration solution.
(§4) HL-60: (human promyelocytic leukemia cell line); K562 (human chronic myelocytic leukemia cell line); HT-29 (human colon cancer cell line); PC-3 (human prostate cancer cell line); A549 (human non-small cell lung cancer cell line); MKN-28 (human gastric cancer cell line); Hep2 (human laryngeal cancer cell line), all of which were purchased from Cell Bank of Shanghai Institutes for Biological Sciences, the Chinese Academy of Sciences.
(§5) Influence of the five test samples on the proliferation of 7 human tumor cell lines was determined via a modified MTT method.
(§6) Cells in logarithmic growth phase were taken, adjusted to a certain concentration and then added into a 96 well culture plate. After culture of adherent cells for a period until adherence, the test samples were added; and for suspension cells, the test samples were added after inoculation. 5 test concentrations 2, 10, 50, 250 and 500 µM were set, with 3 parallel wells for each concentration, 10 µl/well; the solvent controls were 0.5% and 1% of isovolumetric DMSO, and the positive controls was ADM at 3 concentrations 0.1, 1 and 10 µg/ml. The samples were loaded followed by culture for a period of time in an incubator at 37°C, 5% CO2, followed by addition of MTT (5 mg/ml) at 20 µl/well, and continued to be cultured for a period of time and added with a three-combined solution [10% SDS - 5% isobutanol - 0.012 mol/L HCl (W/V/V)]. After dissolving in uniformity, it was continued to be placed in the incubator at 37°C, 5% CO2 for a period of time, and the OD value of each well was determined under a wavelength of 570 nm with a microplate reader, according to which the results were calculated.
(§7) The cellular proliferation inhibition rate was calculated in accordance with the following equation: Inhibition rate (%) = (OD valuecontrol well-OD valuesample well)/OD valuecontrol well × 100% [formula]
(§8) When the inhibition rate of DMSO on cells was more than 15%, calculation was carried out using the following equation: Inhibition rate (%) = (OD valuesolvent group-OD valueadministered well)/OD valuesolvent group × 100% [formula]
(§9) The inhibition rate was calculated by using Microsoft Excel 2003, and median inhibitory concentration IC50 was calculated with a LOGIT method, which was used as an indicator for judging the inhibitory capability.

HL-60 cells = assay: modified MTT method, proliferation of HL-60 cells; details: Homo sapiens, read-out: IC50 on the growth of HL-60 cells
Description: as §1, §2, §3, §4, §5, §6, §7, §8, §9

A549 cells = assay: modified MTT method, proliferation of A549 cells; details: Homo sapiens, read-out: IC50 on the growth of A549 cells
Description: as §1, §2, §3, §4, §5, §6, §7, §8, §9

HT-29 cells = assay: modified MTT method, proliferation of HT-29 cells; details: Homo sapiens
Description: as §1, §2, §3, §4, §5, §6, §7, §8, §9
(§10) According to the results of preliminary screening, further experiments were adjusted such that more sensitive cell lines were screened out. […]

PC-3 cells = assay: modified MTT method, proliferation of PC-3 cells; details: Homo sapiens, read-out: IC50 on the growth of PC-3 cells
Description: as §1, §2, §3, §4, §5, §6, §7, §8, §9

MKN-28 cells = assay: modified MTT method, proliferation of MKN-28 cells; details: Homo sapiens, MKN-28, 72 h, secondary screening
Description: as §1, §2, §3, §4, §5, §6, §7, §8, §9, §10

Hep2 cells = assay: modified MTT method, proliferation of Hep2 cells; details: Homo sapiens, HEp-2, 72 h, secondary screening
Description: as §1, §2, §3, §4, §5, §6, §7, §8, §9, §10

## CO[C@H]1O[C@@H]2O[C@@]3(C)CC[C@H]4[C@H](C)CC[C@@H]([C@H]1C)[C@@]24OO3 [artemether drug substance, (3R,5αS,6R,8αS,9R,10S,12R,12αR)-decahydro-10-methoxy-3,6,9-trimethyl-3,12-epoxy-12H-pyrano[4,3-j]-1,2-benzodioxepin]
K562 cells; K562, 24 h, Batch 1, 24 h
  IC50: > 1000 µM
K562 cells; K562, 24 h, Batch 2, 24 h
  IC50: > 1000 µM
K562 cells; K562, 24 h, Batch 3, 24 h
  IC50: 345 µM
K562 cells; K562, 48 h, Batch 1, 48 h
  IC50: > 1000 µM
K562 cells; K562, 48 h, Batch 2, 48 h
  IC50: > 1000 µM
K562 cells; K562, 48 h, Batch 3, 48 h
  IC50: 331 µM
K562 cells; K562, 72 h, Batch 1, 72 h
  IC50: > 1000 µM
K562 cells; K562, 72 h, Batch 2, 72 h
  IC50: 893 µM
K562 cells; K562, 72 h, Batch 3, 72 h
  IC50: 137 µM
HL-60 cells; HL-60, 24 h, Batch 1, 24 h
  IC50: > 1000 µM
HL-60 cells; HL-60, 24 h, Batch 2, 24 h
  IC50: 658 µM
HL-60 cells; HL-60, 48 h, Batch 1, 48 h
  IC50: > 1000 µM
HL-60 cells; HL-60, 48 h, Batch 2, 48 h
  IC50: 77.2 µM
HL-60 cells; HL-60, 72 h, Batch 1, 72 h
  IC50: > 1000 µM
HL-60 cells; HL-60, 72 h, Batch 2, 72 h
  IC50: 248 µM
A549 cells; A549, 24 h, Batch 1, 24 h
  IC50: > 1000 µM
A549 cells; A549, 24 h, Batch 2, 24 h
  IC50: 641 µM
A549 cells; A549, 48 h, Batch 1, 48 h
  IC50: > 1000 µM
A549 cells; A549, 48 h, Batch 2, 48 h
  IC50: > 1000 µM
A549 cells; A549, 72 h, Batch 1, 72 h
  IC50: > 1000 µM
A549 cells; A549, 72 h, Batch 2, 72 h
  IC50: 832 µM
HT-29 cells; HT-29, 24 h, preliminary screening, Batch 1, 24 h, read-out: IC50 on the growth of HT-29 cells
  IC50: > 1000 µM
HT-29 cells; HT-29, 24 h, preliminary screening, Batch 2, 24 h, read-out: IC50 on the growth of HT-29 cells
  IC50: > 1000 µM
HT-29 cells; HT-29, 48 h, preliminary screening, Batch 1, 48 h, read-out: IC50 on the growth of HT-29 cells
  IC50: > 1000 µM
HT-29 cells; HT-29, 48 h, preliminary screening, Batch 2, 48 h, read-out: IC50 on the growth of HT-29 cells
  IC50: > 1000 µM
HT-29 cells; HT-29, 72 h, preliminary screening, Batch 1, 72 h, read-out: IC50 on the growth of HT-29 cells
  IC50: 318 µM
HT-29 cells; HT-29, 72 h, preliminary screening, Batch 2, 72 h, read-out: IC50 on the growth of HT-29 cells
  IC50: 579 µM
HT-29 cells; HT-29, 72 h, secondary screening, 72 h, Batch 1, read-out: IC50 on the growth of HT-29 cells (72 h)
  IC50: 214 µM
HT-29 cells; HT-29, 72 h, secondary screening, 72 h, Batch 2, read-out: IC50 on the growth of HT-29 cells (72 h)
  IC50: 263 µM
HT-29 cells; HT-29, 72 h, secondary screening, 72 h, Batch 3, read-out: IC50 on the growth of HT-29 cells (72 h)
  IC50: 245 µM
HT-29 cells; HT-29, 72 h, secondary screening, 72 h, average, read-out: IC50 on the growth of HT-29 cells (72 h)
  IC50: 255 µM
PC-3 cells; PC-3, 24 h, Batch 1, 24 h
  IC50: > 1000 µM
PC-3 cells; PC-3, 24 h, Batch 2, 24 h
  IC50: > 1000 µM
PC-3 cells; PC-3, 48 h, Batch 1, 48 h
  IC50: > 1000 µM
PC-3 cells; PC-3, 48 h, Batch 2, 48 h
  IC50: > 1000 µM
PC-3 cells; PC-3, 72 h, Batch 1, 72 h
  IC50: > 1000 µM
PC-3 cells; PC-3, 72 h, Batch 2, 72 h
  IC50: > 1000 µM
MKN-28 cells; Average, read-out: IC50 on the growth of MKN-28 cells (72 h)
  IC50: 402 µM
MKN-28 cells; Batch 1, read-out: IC50 on the growth of MKN-28 cells (72 h)
  IC50: 27900 µM
MKN-28 cells; Batch 2, read-out: IC50 on the growth of MKN-28 cells (72 h)
  IC50: 336 µM
MKN-28 cells; Batch 3, read-out: IC50 on the growth of MKN-28 cells (72 h)
  IC50: 520 µM
Hep2 cells; Batch 1, read-out: IC50 on the growth of Hep2 cells (72 h)
  IC50: 412 µM
Hep2 cells; Batch 2, read-out: IC50 on the growth of Hep2 cells (72 h)
  IC50: > 1000 µM
Hep2 cells; Batch 3, read-out: IC50 on the growth of Hep2 cells (72 h)
  IC50: > 1000 µM
Hep2 cells; average, read-out: IC50 on the growth of Hep2 cells (72 h)
  IC50: > 1000 µM
